Structures are written as SMILES.

The record followed here is US20130123287A1, “CONTROL AGENT FOR SOFT ROT AND CONTROL METHOD FOR THE SAME” (ISHIHARA SANGYO KAISHA, LTD., priority 2010, published 2013).

The test system of test [1] is bacteria causing the soft rot (Erwinia carotovora). Briefly: Inhibition test of growth of bacteria causing soft rot, Reference Test Example 4. The test is classed as cell-based. To be noted: for formed colonies (growth state), grade: PSA medium, 27 degrees Celsius, 2 days; for inhibition of growth of Erwinia carotovora (in words): active ingredient concentration of 1,000 ppm. The source says: An inhibition test of the growth of bacteria causing the soft rot was done, when a control agent was directly applied to the bacteria causing the soft rot. A given volume of each pesticide of kresoxim-methyl (STROBY DF [trade name] manufactured by BASF), thiophanate methyl (Topsin M WP [trade name], manufactured by Nippon Soda Co., Ltd), boscalid (Cantus DF [trade name] manufactured by BASF), procymidone (Sumilex WP [trade name] manufactured by Sumitomo Chemical Agro Co., Ltd.) and streptomycin (Mycin Wettable powder [trade name] manufactured by Hokko Chemical Industry Co., Ltd.) was added together with a suspension of the bacteria causing the soft rot (Erwinia carotovora) to a preliminarily dissolved PSA culture medium (55 degrees Celsius) for subsequent thorough agitation, which was then spread on a plate for culturing at 27 degrees Celsius for 2 days, to examine the growth state. Subsequently, the formed colonies were examined according to the following three grades. • +: at the same level as the level of non-treated lot. Plus or minus: apparently less than the colonies of the non-treated lot. • −: almost no colonies observed.

The subject of test [2] is soft rot of Chinese cabbage. In words: Test for controlling soft rot of Chinese cabbage, Example 4 / Comparative Example 4 (field, cultivar Ouraku 60). In kind it is in vivo. To be noted: 150 L/10 a sprayed onto planting holes before planting, 49 days after start. An excerpt: Frequency of the disease=[sigma(number of plants with the onset of the disease at each severity level*index of the onset of the disease)/(plants examined*4)]*100
Disease control value=[1-(frequency of the disease in the treated lot/frequency of the disease in the non-treated lot)]*100
• 0: No onset • 1: Onset in some of outer leaves (shippable) • 2: Onset in outer leaves and some of head leaves (by removing damaged parts, the resulting cabbage can be shipped as small cabbage but is ranked as grade B). • 3: Most of head leaves are inflicted with the onset of the disease or with severer damages (not shippable) • 4: Whole cabbage plant is inflicted with the onset of the disease and is dead.
442 g/lkresoxim-methyl (STROBY FLOWABLE [trade name], manufactured by BASF) was adjusted to 500 g ai/10a (0.5 g/m^2, 1131 ml Product/10a) as the amount of the active ingredient and to 150 L/10a as the volume of diluent water.
70% w/w thiophanate methyl (Topsin M WF [trade name], manufactured by Nippon Soda Co., Ltd.) was adjusted to 1000 g ai/10a (1 g/m^2, 1429 g Product/10a) as the amount of the active ingredient and to 150 L/10a as the volume of diluent water.
50% w/w boscalid (Cantus DF [trade name], manufactured by BASF) was adjusted to 500 g ai/10a (0.5 g/m^2; 1000 g Product/10a) as the amount of the active ingredient and to 150 L/10a as the volume of diluent water.
50% w/w procymidone (Sumilex WP [trade name], manufactured by Sumitomo Chemical Agro) was adjusted to 500 g ai/10a (0.5 g/m^2, 1000 g Product/10a) as the amount of the active ingredient and to 150 L/10a as the volume of diluent water.
400 g/l iprodione (Rovral 500 Aqua [trade name], manufactured by Bayer Crop Science Co., Ltd.) was adjusted to 500 g ai/10a (0.5 g/m^2, […] Product/10a) as the amount of the active ingredient and to 150 L/10a as the volume of diluent water.
200 g/l fludioxonil (Seibia FLOWABLE [trade name], manufactured by Syngenta Japan K.K.) was adjusted to 500 g ai/10a (0.5 g/m^2, 2500 ml Product/10a) as the amount of the active ingredient and to 150 L/10a as the volume of diluent water.
400 g/l mepanipyrim (Flupika PLOWABLE [trade name], manufactured by Nippon Soda Co., Ltd.) was adjusted to 500 g ai/10a (0.5 g/m^2, 1250 ml Product/10a) as the amount of the active ingredient and to 150 L/10a as the volume of diluent water.
After spreading an agricultural mulch-sheet and opening planting holes (diameter of about 5 cm) for permanent planting through the mulch-sheet, the spray solutions prepared as described above were sprayed onto the planting holes such that the amount of treated active ingredient of each spray solution was 0.5 g/m^2 (150 L per 10a), followed by air-drying; subsequently, seedlings of Chinese cabbage (cultivar: Ouraku 60) grown for 4 weeks in cell mold trays (128 holes/nursery box) were planted such that 30 seedlings were planted in each test lot having an area of 2.5 m^2 with two replications.
Preparation was performed by diluting a chemical solution (Agrimycin WP100 [trade name] manufactured by Pfizer) containing oxytetracycline at 1.5% and streptomycin sulfate salt at 18.8% with water to 1/1500.
In a field spread with the agricultural mulch-sheet, Chinese cabbage seedlings (cultivar: Ouraku 60) grown by the same method as in Example 4 were planted by the same method as in Example 4, for spraying the spray solution prepared above in (1) (at each spray volume of 300 L/10a) twice (28 days and 42 days after the planting of the seedlings) on the stems and leaves.
49 days after the start of the tests, all the plants in each lot were examined about the severity level of the disease to assess the frequency of the disease and the disease control value. Herein, the frequency of the disease and the disease control value were determined in the same manner as described above. Because soft rot is a disease with damages hardly controlled, herein, even a chemical at the level C determined by the tests of the effects can practically be used.

Test [3] relates to bacteria causing the soft rot (Erwinia carotovora). Briefly: Inhibition test of growth of bacteria causing soft rot, Reference Test Example 6. The test is classed as cell-based. To be noted: for formed colonies (growth state), grade: PSA medium, 27 degrees Celsius, 3 days; for inhibition of growth of Erwinia carotovora (in words): active ingredient concentration of 1,000 ppm. The source says:
(§1) An inhibition test of the growth of bacteria causing the soft rot was done, when a control agent was directly applied to the bacteria causing the soft rot. A given volume of each pesticide of fludioxonil (Seibia FL [trade name] manufactured by Syngenta Japan K.K.), iminoctadine albesilate salt (Bellkute WP [trade name], manufactured by Nippon Soda Co., Ltd.), iprodione (Rovral WP [trade name] manufactured by Bayer Crop Science Co., Ltd.), and streptomycin (Mycin Wettable powder [trade name] manufactured by Hokko Chemical Industry Co., Ltd.) was added together with a suspension of the bacteria causing the soft rot (Erwinia carotovora) to a preliminarily dissolved PSA culture medium (55 degrees Celsius) for subsequent thorough agitation, which was then spread on a plate for culturing at 27 degrees Celsius for 3 days, to examine the growth state. Subsequently, the formed colonies were examined according to the following three grades. • +: at the same level as the level of non-treated lot.
(§2) Plus or minus: apparently less than the colonies of the non-treated lot. • −: almost no colonies observed.

Test [4] shares this test system. Briefly: Inhibition test of growth of bacteria causing soft rot, Reference Test Example 5. The test is classed as cell-based. To be noted: for formed colonies (growth state), grade: PSA medium, 27 degrees Celsius, 2 days. The method, then:
as §1, with “mepanipyrim (Flupika” for “fludioxonil (Seibia”, “by” for “by Syngenta Japan K.K.), iminoctadine albesilate salt (Bellkute WP [trade name], manufactured by”, “Ltd.)” for “Ltd.), iprodione (Rovral WP [trade name] manufactured by Bayer Crop Science Co., Ltd.),”, “2” for “3”
as §2

Take `O=C(Nc1ccccc1-c1ccc(Cl)cc1)c1cccnc1Cl` [Boscalid, 2-chloro-N-(4′-chlorobiphenyl-2-yl)nicotinamide]: the “formed colonies (growth state), grade” value in test [1] (100 ppm active ingredient) is recorded as “+, +”; in test [1] (500 ppm active ingredient), “+, +”; in test [1] (1000 ppm active ingredient) it was “+, +”. For the same compound, in test [1], the “inhibition of growth of Erwinia carotovora (in words)” value (“inhibition” for short) is recorded as “never inhibited the growth”. Also, in test [2] (500 g ai/10 a), the Determination of effect result is reported as “C (C: Effective at low level (21 to 40 disease control value))”.

`N#Cc1c[nH]cc1-c1cccc2c1OC(F)(F)O2` [Fludioxonil, 4-(2,2-difluoro-1,3-benzodioxol-4-yl)pyrrole-3-carbonitrile]: the Determination of effect entry in test [2] (500 g ai/10 a) was “C (C: Effective at low level (21 to 40 disease control value))”. The “formed colonies (growth state), grade” value in test [3] (100 ppm active ingredient) is recorded as “+, +”; in test [3] (500 ppm active ingredient), “+, +”; in test [3] (1000 ppm active ingredient) it was “+, +”. In test [3], the “inhibition” value is listed as “never inhibited the growth”.

Consider `CC(C)NC(=O)N1CC(=O)N(c2cc(Cl)cc(Cl)c2)C1=O` [Iprodione, 3-(3,5-dichlorophenyl)-N-isopropyl-2,4-dioxoimidazolizine-1-carboxamide], for which the Determination of effect entry in test [2] (500 g ai/10 a) was “B (B: Effective (41 to 60 disease control value))”. In addition, the “formed colonies (growth state), grade” value is “+, +” in test [3] (100 ppm active ingredient); “+, +” in test [3] (500 ppm active ingredient); “+, +” in test [3] (1000 ppm active ingredient). In addition, the “inhibition” value in test [3] is “never inhibited the growth”.

Consider `CC#Cc1cc(C)nc(Nc2ccccc2)n1` [Mepanipyrim, N-(4-methyl-6-prop-1-ynylpyrimidin-2-yl)aniline], for which the “formed colonies (growth state), grade” value in test [4] (100 ppm active ingredient) is on record as “+, +”; in test [4] (500 ppm active ingredient) it was “+, +”; in test [4] (1000 ppm active ingredient), “+, +”. Also, the “inhibition” value in test [4] (active ingredient concentration of 1,000 ppm) is “never inhibited the growth”. Further, the Determination of effect entry in test [2] (500 g ai/10 a) is given as “B (B: Effective (41 to 60 disease control value))”.

For `CC12CC1(C)C(=O)N(c1cc(Cl)cc(Cl)c1)C2=O` (stereo not drawn) [Procymidone, N-(3,5-dichlorophenyl)-1,2-dimethylcyclopropane-1,2-dicarboximide], the “formed colonies (growth state), grade” value in test [1] (100 ppm active ingredient) is on record as “+, +”; in test [1] (500 ppm active ingredient), “+, +”; in test [1] (1000 ppm active ingredient) it was “+, +”. The “inhibition” value in test [1] is given as “never inhibited the growth”. Moreover, the Determination of effect entry in test [2] (500 g ai/10 a) is listed as “A (A: Highly effective (61 or larger disease control value))”.

`COC(=O)NC(=S)Nc1ccccc1NC(=S)NC(=O)OC` [Thiophanate methyl, dimethyl=4,4′-(o-phenylene)bis(3-thioallophanate)]: the “formed colonies (growth state), grade” value is “+, +” in test [1] (100 ppm active ingredient); “+, +” in test [1] (500 ppm active ingredient); “+, +” in test [1] (1000 ppm active ingredient). The “inhibition” value in test [1] is listed as “never inhibited the growth”. For the same compound, in test [2] (1000 g ai/10 a), the Determination of effect result was “B (B: Effective (41 to 60 disease control value))”.
